As usually defined, the Kd is the concentration at which binding is half-saturated. A high value points to a looser complex.

The target in the assay is T1, BAK (Homo sapiens, UniProt Q16611).
T1 construct: gene BAK1; BAKΔTM (lacking its transmembrane domain) for MST; BAK 15–186 for NMR
T1 sequence (Q16611 15-186): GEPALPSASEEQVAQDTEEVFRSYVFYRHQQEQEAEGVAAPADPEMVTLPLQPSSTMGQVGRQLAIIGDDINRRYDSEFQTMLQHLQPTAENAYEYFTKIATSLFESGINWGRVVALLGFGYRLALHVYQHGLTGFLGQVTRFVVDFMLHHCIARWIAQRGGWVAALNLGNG
Nature of the assay: microscale thermophoresis; 1H, […]-HSQC NMR titration; BAK oligomerization and liposome release as support. The assay is classed as binding. On the technique in general: MST reads how a fluorescent partner responds to local heating, with and without ligand.

On to `CC1=NN(c2ccc(C)c(C)c2)C(=O)/C1=N\Nc1cccc(-c2cccc(C(=O)O)c2)c1O` [Eltrombopag], for which the Kd was determined as 1.2 ± 0.7 µM.
